Results taken from PMC12775149 (Nature Communications, 2025).

Tests used:
AtCAT5 = target: T1, AtCAT5 (Arabidopsis thaliana, UniProt O64759); assay: LC-MS/MS of PPT accumulated in overexpressing M. polymorpha versus Tak-1; conditions: whole plants, 100 µM PPT (time course at 1 mM PPT up to 48 h)
T1 sequence (O64759 1-569): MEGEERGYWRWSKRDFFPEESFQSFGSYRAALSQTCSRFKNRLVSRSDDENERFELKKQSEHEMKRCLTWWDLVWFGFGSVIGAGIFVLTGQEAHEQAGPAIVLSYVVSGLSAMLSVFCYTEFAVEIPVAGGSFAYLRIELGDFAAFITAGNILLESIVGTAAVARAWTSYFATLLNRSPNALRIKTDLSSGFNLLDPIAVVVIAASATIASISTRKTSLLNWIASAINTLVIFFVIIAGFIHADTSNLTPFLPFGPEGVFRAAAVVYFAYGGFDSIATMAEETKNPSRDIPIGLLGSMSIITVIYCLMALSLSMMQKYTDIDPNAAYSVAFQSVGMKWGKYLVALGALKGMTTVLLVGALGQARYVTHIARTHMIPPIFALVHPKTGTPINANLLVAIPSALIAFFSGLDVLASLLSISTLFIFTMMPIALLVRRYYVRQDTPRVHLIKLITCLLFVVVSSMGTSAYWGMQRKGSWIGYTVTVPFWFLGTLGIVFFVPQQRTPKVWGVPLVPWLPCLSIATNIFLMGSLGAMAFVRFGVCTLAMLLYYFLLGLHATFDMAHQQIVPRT

AtCAT1 = target: T2, AtCAT1 (Arabidopsis thaliana, UniProt Q84MA5); assay: as above; conditions: whole plants, 100 µM PPT
T2 sequence (Q84MA5 2-594): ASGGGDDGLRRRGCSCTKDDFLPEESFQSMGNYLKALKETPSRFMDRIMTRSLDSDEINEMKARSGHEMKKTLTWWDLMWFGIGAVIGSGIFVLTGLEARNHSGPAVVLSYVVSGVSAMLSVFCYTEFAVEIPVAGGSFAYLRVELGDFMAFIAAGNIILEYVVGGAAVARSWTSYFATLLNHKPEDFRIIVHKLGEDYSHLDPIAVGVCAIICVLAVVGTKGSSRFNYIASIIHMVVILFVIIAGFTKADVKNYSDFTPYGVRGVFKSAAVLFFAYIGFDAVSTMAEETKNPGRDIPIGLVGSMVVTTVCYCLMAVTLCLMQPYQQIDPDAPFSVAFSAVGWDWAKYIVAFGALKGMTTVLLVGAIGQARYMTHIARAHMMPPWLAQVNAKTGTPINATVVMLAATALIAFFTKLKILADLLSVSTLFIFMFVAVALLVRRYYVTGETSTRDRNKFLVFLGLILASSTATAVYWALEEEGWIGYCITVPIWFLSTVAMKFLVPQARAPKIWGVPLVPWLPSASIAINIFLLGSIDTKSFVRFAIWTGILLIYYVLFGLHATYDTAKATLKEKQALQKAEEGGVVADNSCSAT

With `CP(=O)(O)CC[C@H](N)C(=O)O` [PPT, L-phosphinothricin] the PPT accumulation (AtCAT5) was “Increased PPT contents in both AtCAT1ox and AtCAT5ox lines confirmed the successful mediation” and the PPT accumulation (AtCAT1) was “Increased PPT contents in both AtCAT1ox and AtCAT5ox lines confirmed the successful mediation”.
